Measurements as given in patent US20220411388A1, “SUBSTITUTED IMIDAZOLE CARBOXAMIDES AND THEIR USE IN THE TREATMENT OF MEDICAL DISORDERS” (Bial - R&D Investments, S.A., priority 2019, published 2022).
Converted amounts (≈) assume the structure as drawn. Like-named read-outs stand apart in the source and are kept apart here.

Assays:
[1] = Compound solubility in water; assay type: physicochemical
[2] = target: T1, acid ceramidase (hACR) (Homo sapiens, UniProt Q13510); experiment: Acid ceramidase inhibition, biochemical fluorescent assay with cell lysates overexpressing acid ceramidase (substrate Rbm14-12); settings: cell lysate, 1 hr preincubation at RT, pH 4.5, Rbm14-12 6.3 μM
T1 construct: expressed in transfected cells
T1 sequence (Q13510 22-395): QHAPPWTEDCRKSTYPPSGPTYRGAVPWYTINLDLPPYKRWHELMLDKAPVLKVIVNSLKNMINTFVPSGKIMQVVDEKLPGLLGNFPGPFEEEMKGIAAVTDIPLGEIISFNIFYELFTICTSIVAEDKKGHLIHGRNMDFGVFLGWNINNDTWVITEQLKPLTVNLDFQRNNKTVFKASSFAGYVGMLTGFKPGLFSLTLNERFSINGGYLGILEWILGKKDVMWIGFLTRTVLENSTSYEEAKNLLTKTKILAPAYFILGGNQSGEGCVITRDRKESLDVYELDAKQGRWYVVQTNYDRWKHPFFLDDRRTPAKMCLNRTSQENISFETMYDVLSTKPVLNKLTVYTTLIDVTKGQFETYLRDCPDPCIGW
Method: The ability of exemplary compounds to inhibit acid ceramidase was measured.
Cell lysates overexpressing acid ceramidase were used as the enzyme source for compound potency determination in a biochemical fluorescent assay. Briefly, compounds were preincubated with 10 μg protein of cell lysates in a dose-response manner for 1 hr at RT in the assay buffer containing 25 mM NaAC and 100 mM NaCl, pH 4.5. […] The samples were incubated with the stopping buffer at RT for 1 hr to allow the fluorescent product to be formed. […] Data were collected and used to determine the IC50 values of compounds by curve fitting to the four-parameter inhibition equation.

SMILES	solubility [1]	IC50 ([2]; read-out: IC50 hACR)	IC50 ([2]; IC50 hACR)
COc1nc(C2CCCO2)cn1C(=O)NCCC(C)C (stereo not shown) [Example 84, N-iso-pentyl-2-methoxy-4-(tetrahydrofuran-2-yl)-1H-imidazole-1-carboxamide]	25 µg/mL (≈ 88.9 µM)	> 1000 nM	
COc1nc(C2CCOC2)cn1C(=O)NCCC(C)C (stereo not shown) [Example 85, N-iso-Pentyl-2-methoxy-4-(tetrahydrofuran-3-yl)-1H-imidazole-1-carboxamide]	28 µg/mL (≈ 99.5 µM)	200 to 1000 nM	
COc1nc(C(C)(C)C)cn1C(=O)NCC(C)C [Example 86, 4-(tert-Butyl)-N-iso-butyl-2-methoxy-1H-imidazole-1-carboxamide]	15 µg/mL (≈ 59.2 µM)	200 to 1000 nM	
CC(C)CNC(=O)n1cnc(C(C)(C)C)c1 [Example 87, 4-(tert-Butyl)-N-iso-butyl-1H-imidazole-1-carboxamide]	17 µg/mL (≈ 76.1 µM)	200 to 1000 nM	
COc1nc(C(C)(C)C)cn1C(=O)NCCC1(C(F)(F)F)CC1 [Example 90, 4-(tert-Butyl)-2-methoxy-N-(2-(1-(trifluoromethyl)cyclopropyl)ethyl)-1H-imidazole-1-carboxamide]	17 µg/mL (≈ 51 µM)	200 to 1000 nM	
COc1nc(C(C)(C)C)cn1C(=O)NCCCC(F)(F)F [Example 91, 4-(tert-Butyl)-2-methoxy-N-(4,4,4-trifluorobutyl)-1H-imidazole-1-carboxamide]	22 µg/mL (≈ 71.6 µM)	200 to 1000 nM	
CCOc1nc(C(C)(C)C)cn1C(=O)NCCC1CC1 [Example 92, 4-(tert-Butyl)-N-(2-cyclopropylethyl)-2-ethoxy-1H-imidazole-1-carboxamide]	12 µg/mL (≈ 43 µM)	200 to 1000 nM	
COc1nc(C(C)(C)C)cn1C(=O)NC1CCCCC1 [Example 93, 4-(tert-Butyl)-N-cyclohexyl-2-methoxy-1H-imidazole-1-carboxamide]	8 µg/mL (≈ 28.6 µM)	200 to 1000 nM	
COc1ccc(-c2cn(C(=O)NCCC3(C(F)(F)F)CC3)c(OC)n2)cn1 [Example 94, 2-Methoxy-4-(6-methoxypyridin-3-yl)-N-(2-(1-(trifluoromethyl)cyclopropyl)ethyl)-1H-imidazole-1-carboxamide]	6 µg/mL (≈ 15.6 µM)	200 to 1000 nM	
COc1nc(C(C)(C)C)cn1C(=O)NCCCC1CC1 [Example 95, 4-(tert-Butyl)-N-(3-cyclopropylpropyl)-2-methoxy-1H-imidazole-1-carboxamide]	12 µg/mL (≈ 43 µM)	< 200 nM	
COc1nc(C(C)(C)C)cn1C(=O)NCCCC1(C(F)(F)F)CC1 [Example 96, 4-(tert-Butyl)-2-methoxy-N-(3-(1-(trifluoromethyl)cyclopropyl)propyl)-1H-imidazole-1-carboxamide]	12 µg/mL (≈ 34.5 µM)	< 200 nM	
COc1nc(C(C)(C)C)cn1C(=O)NCCCCC1CC1 [Example 97, 4-(tert-Butyl)-N-(4-cyclopropylbutyl)-2-methoxy-1H-imidazole-1-carboxamide]	3 µg/mL (≈ 10.2 µM)	< 200 nM	
COc1nc(C(C)(C)C)cn1C(=O)NCC#CC(C)C [Example 98, 4-(tert-Butyl)-2-methoxy-N-(4-methylpent-2-yn-1-yl)-1H-imidazole-1-carboxamide]	5 µg/mL (≈ 18 µM)	< 200 nM	
COc1nc(C(C)(C)C)cn1C(=O)NC1CCCC(F)(F)C1 (stereo not shown) [Example 99, 4-(tert-Butyl)-N-(3,3-difluorocyclohexyl)-2-methoxy-1H-imidazole-1-carboxamide]	14 µg/mL (≈ 44.4 µM)	> 1000 nM	
CCC(C)(C)c1cn(C(=O)NCCC(C)C)c(OC)n1 [Example 100, N-iso-Pentyl-2-methoxy-4-(tert-pentyl)-1H-imidazole-1-carboxamide]	14 µg/mL (≈ 49.8 µM)		200 to 1000 nM
COc1nc(C(C)(C)C)cn1C(=O)NCCCc1ccccc1 [Example 101, 4-(tert-Butyl)-2-methoxy-N-(3-phenylpropyl)-1H-imidazole-1-carboxamide]	10 µg/mL (≈ 31.7 µM)	< 200 nM	
COc1nc(C(C)(C)C)cn1C(=O)NCCCC(C)C [Example 102, 4-(tert-Butyl)-2-methoxy-N-(4-methylpentyl)-1H-imidazole-1-carboxamide]	10 µg/mL (≈ 35.5 µM)	< 200 nM	
